Assay results from patent US8415486B2, “IAP inhibitors” (TetraLogic Pharmaceuticals Corp., priority 2009, dated 2013).

How the values were obtained:
XIAP BIR-3 = target: T1, XIAP BIR-3 (Homo sapiens, UniProt P98170); assay: Fluorescence polarization binding to XIAP BIR-3 with labeled peptide AbuRPF-K(5-Fam)-NH2; conditions: 40 nM BIR3, 5 nM labeled peptide, reported as ranges
T1 construct: 40 nM of the respective IAP BIR3
Procedure: (§1) The binding affinities of the compounds are reported as a KD value (μM). Briefly, various concentrations of test peptides were mixed with 5 nM of the fluorescently labeled peptide (i.e., a mutated N-terminal Smac peptide—AbuRPF-K(5-Fam)-NH2) and 40 nM of the respective IAP BIR3 for 15 min at RT in […] of 0.1M Potassium Phosphate buffer, pH 7.5 containing 100 mg/ml bovine g-globulin. Following incubation, the polarization values (mP) were measured on a Victor2V (available from PerkinElmer Life Sciences) using a 485 nm excitation filter and a 520 nm emission filter. The reported binding affinities (KD values) are supplied as ranges (A=<0.1 μM, B=0.1 μM to 1 μM, C=>1 μM to 10 μM, D=>10 μM).

cIAP-1 BIR-3 = target: T2, cIAP-1 BIR-3 (Homo sapiens, UniProt Q13490); assay: Fluorescence polarization binding to cIAP-1 BIR-3 with labeled peptide AbuRPF-K(5-Fam)-NH2; conditions: 40 nM BIR3, 5 nM labeled peptide, reported as ranges, read-out: KD (c-IAP-1 BIR3)
T2 construct: 40 nM of the respective IAP BIR3
T2 sequence (Q13490 253-363 limits assumed): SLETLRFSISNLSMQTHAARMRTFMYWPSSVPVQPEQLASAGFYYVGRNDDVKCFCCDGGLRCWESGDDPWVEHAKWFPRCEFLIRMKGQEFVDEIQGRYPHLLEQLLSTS
Procedure: as §1

[1] = test system: ovarian cancer cell line, SK-OV-3; assay: SK-OV-3 cell growth inhibition (MTT, 72 hrs); format: cell-based; conditions: Homo sapiens, concentration giving 50% cell survival, reported as ranges
Procedure: Compounds of the invention also were tested for their ability to inhibit the growth of an ovarian cancer cell line, SK-OV-3. A known assay previously used for measuring cell growth (as described in Hansen, M. B., Nielsen, S. E., and Berg, K. (1989) J. Immunol. Methods 119, 203-210 and incorporated herein by reference in its entirety) was used. Briefly, SK-OV-3 cells are seeded in 96-well plates in McCoy's medium containing 10% fetal bovine serum albumin (5,000 per well) and incubated overnight at 37° C. The next day, test compounds are added at various concentrations (0.003-10 μM) and the plates are incubated at 37° C. for an additional 72 hrs. This incubation time was considered to be optimal for measuring inhibitory effects of the different compounds tested. 50 microliters of 5 mg/mL MTT reagent is added to each well and the plates are incubated at 37° C. for another three (3) hours. At the end of the three (3) hour incubation period, 50 microliters of DMSO is added to each well to dissolve cells and the optical density (OD) of the wells is measured with a microplate reader (Victor^2 1420, Wallac, Finland) at 535 nm. Cell survival (CS) was calculated using the following equation: CS=(OD treated well/mean OD control wells)×100%.
The CC50 (reported in the following tables), is defined as the drug concentration that results in 50% cell survival (CS), and is derived by calculating the point where the dose-response curve crosses the 50% CS point using GraphPad Prism. The reported CC50 values are supplied as ranges (A=<0.1 μM, B=0.1 μM to 1 μM, C=>1 μM to 10 μM, D=>10 μM).

T1 sequence (P98170 241-356 limits assumed): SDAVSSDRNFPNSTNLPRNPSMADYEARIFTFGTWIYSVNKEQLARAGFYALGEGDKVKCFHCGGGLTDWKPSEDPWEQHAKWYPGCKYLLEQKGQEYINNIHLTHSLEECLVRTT

SMILES | Kd (XIAP BIR-3) [nM] | Kd (cIAP-1 BIR-3) [nM] | CC50 [1] [nM]
CN[C@@H](C)C(=O)N[C@H](C(=O)N1CC[C@@H]2[C@H]1[C@@H](Oc1ccc(F)cc1)CN2S(C)(=O)=O)C1CCCCC1 [Example 10, N-{1-Cyclohexyl-2-[6-(4-fluoro-phenoxy)-4-methanesulfonyl-hexahydro-pyrrolo[3,2-b]pyrrol-1-yl]-2-oxo-ethyl}-2-methylamino-propionamide] | < 100 | < 100 | < 100
CN[C@@H](C)C(=O)N[C@H](C(=O)N1CC[C@@H]2[C@H]1[C@@H](Oc1ccccc1)CN2C(=O)OC(C)(C)C)C(C)C [Example 1, 4-[3-Methyl-2-(2-methylamino-propionylamino)-butyryl]-3-phenoxy-hexahydro-pyrrolo[3,2-b]pyrrole-1-carboxylic acid tert-butyl ester] | 100 to 1000 | < 100 | < 100
CCCCNC(=O)O[C@H]1CN(C(=O)NC(C)C)[C@@H]2CCN(C(=O)[C@@H](NC(=O)[C@H](C)NC)C(C)(C)C)[C@H]12 [Example 53, Butyl-carbamic acid 4-[3,3-dimethyl-2-(2-methylamino-propionylamino)-butyryl]-1-isopropylcarbamoyl-octahydro-pyrrolo[3,2-b]pyrrol-3-yl ester] | 100 to 1000 | < 100 | 100 to 1000
CNC(C)C(=O)NC(C(=O)N1CCC2C1C(OC(=O)NCc1ccccc1)CN2C(=O)NC(C)C)C(C)(C)C (stereo not drawn) [Example 46, Benzyl-carbamic acid 4-[3,3-dimethyl-2-(2-methylamino-propionylamino)-butyryl]-1-isopropylcarbamoyl-octahydro-pyrrolo[3,2-b]pyrrol-3-yl ester] | 100 to 1000 | < 100 | < 100
CN[C@@H](C)C(=O)N[C@H](C(=O)N1CC[C@@H]2[C@H]1[C@@H](COc1ccc(F)c(F)c1)CN2C(=O)NC(C)C)C(C)(C)C [Example 67, 3-(3,4-Difluoro-phenoxymethyl)-4-[3.3-dimethyl-2-(2-methylaminopropionylamino)-butyryl]-hexahydro-pyrrolo[3,2-b]pyrrole-1-carboxylic acid isopropylamide] | < 100 | < 100 | < 100
CN[C@@H](C)C(=O)N[C@H](C(=O)N1CC[C@@H]2[C@H]1[C@@H](Oc1ccc(F)c(F)c1)CN2C1CCCC1)C(C)(C)C [Example 17, N-{1-[4-Cyclopentyl-6-(3,4-difluoro-phenoxy)-hexahydro-pyrrolo[3,2-b]pyrrole-1-carbonyl]-2,2-dimethyl-propyl}-2-methylamino-propionamide] | 100 to 1000 | < 100 | < 100
CN[C@@H](C)C(=O)N[C@H](C(=O)N1CC[C@@H]2[C@H]1[C@@H](COc1ccc(F)c(F)c1)CN2c1ncccn1)C(C)(C)C [Example 72, N-{1-[6-(3,4-Difluoro-phenoxymethyl)-4-pyrimidin-2-yl-hexahydro-pyrrolo[3,2-b]pyrrole-1-carbonyl]-2,2-dimethylpropyl}-2-methylamino-propionamide] | 100 to 1000 | < 100 | < 100
CN[C@@H](C)C(=O)N[C@H](C(=O)N1CC[C@@H]2[C@H]1[C@@H](Oc1ccccc1)CN2C(C)=O)C(C)C [Example 2, N-[1-(4-Acetyl-6-phenoxy-hexahydro-pyrrolo[3,2-b]pyrrole-1-carbonyl)-2-methyl-propyl]-2-methylamino-propionamide] | 1000 to 10000 | < 100 | < 100
CN[C@@H](CF)C(=O)N[C@H](C(=O)N1CC[C@@H]2[C@H]1[C@@H](OCc1ccccc1)CN2C(=O)OC(C)(C)C)C1CCCCC1 [Example 32, 3-Benzyloxy-4-[2-cyclohexyl-2-(3-fluoro-2-methylamino-propionylamino)-acetyl]-hexahydro-pyrrolo[3,2-b]pyrrole-1-carboxylic acid tert-butyl ester] | < 100 | < 100 | 100 to 1000
CN[C@@H](C)C(=O)N[C@H](C(=O)N1CC[C@@H]2[C@H]1[C@@H](Oc1ccc(F)c(F)c1)CN2S(C)(=O)=O)C(C)C [Example 12, N-{1-[6-(3,4-Difluoro-phenoxy)-4-methanesulfonyl-hexahydro-pyrrolo[3,2-b]pyrrole-1-carbonyl]-2-methyl-propyl}-2-methylamino-propionamide] | < 100 | < 100 | < 100
CCNC(=O)O[C@H]1CN(C(=O)NC(C)C)[C@@H]2CCN(C(=O)[C@@H](NC(=O)[C@H](C)NC)C(C)(C)C)[C@H]12 [Example 52, Ethyl-carbamic acid 4-[3,3-dimethyl-2-(2-methylamino-propionylamino)-butyryl]-1-isopropylcarbamoyl-octahydro-pyrrolo[3,2-b]pyrrol-3-yl ester] | 1000 to 10000 | < 100 | 1000 to 10000
CN[C@@H](C)C(=O)N[C@H](C(=O)N1CC[C@@H]2[C@H]1[C@@H](Oc1ccc(F)c(F)c1)CN2C(=O)N(C)C)C(C)(C)C [Example 25, 3-(3,4-Difluoro-phenoxy)-4-[3,3-dimethyl-2-(2-methylamino-propionylamino)-butyryl]-hexahydro-pyrrolo[3,2-b]pyrrole-1-carboxylic acid dimethylamide] | < 100 | < 100 | < 100
CN[C@@H](C)C(=O)N[C@H](C(=O)N1CC[C@H]2NC[C@H](Oc3ccccc3-c3ccccc3)[C@H]21)C1CCCCC1 [Example 4, N-{2-[6-(Biphenyl-2-yloxy)-hexahydro-pyrrolo[3,2-b]pyrrol-1-yl]-1-cyclohexyl-2-oxo-ethyl}-2-methylamino-propionamide] | 100 to 1000 | < 100 | 100 to 1000
CN[C@@H](C)C(=O)N[C@H](C(=O)N1CC[C@@H]2[C@H]1[C@@H](COc1ccc(F)c(F)c1)CN2S(C)(=O)=O)C(C)(C)C [Example 63, N-{1-[6-(3,4-Difluoro-phenoxymethyl)-4-methanesulfonyl-hexahydro-pyrrolo[3,2-b]pyrrole-1-carbonyl}-2,2-dimethyl-propyl]-2-methylamino propionamide] | < 100 | < 100 | < 100
CN[C@@H](C)C(=O)N[C@H](C(=O)N1CC[C@@H]2[C@H]1[C@@H](Oc1ccc(F)c(F)c1)CN2C(=O)CC(C)C)C(C)(C)C [Example 22, N-{1-[6-(3,4-Difluoro-phenoxy)-4-(3-methyl-butyryl)-hexahydro-pyrrolo[3,2-b]pyrrole-1-carbonyl]-2,2-dimethyl-propyl}-2-methylamino-propionamide] | < 100 | < 100 | < 100
CN[C@@H](C)C(=O)N[C@H](C(=O)N1CC[C@@H]2[C@H]1[C@@H](OCc1ccc(F)cc1)CN2C(C)=O)C(C)(C)C [Example 40, N-{1-[4-Acetyl-6-(4-fluoro-benzyloxy)-hexahydro-pyrrolo[3,2-b]pyrrole-1-carbonyl]-2,2-dimethyl-propyl}-2-methylamino-propionamide] | < 100 | < 100 | < 100
CNC(=O)N1C[C@H](OCc2ccc(F)cc2)[C@@H]2[C@H]1CCN2C(=O)[C@@H](NC(=O)[C@H](C)NC)C(C)(C)C [Example 36, 4-[3,3-Dimethyl-2-(2-methylamino-propionylamino)-butyryl]-3-(4-fluoro-benzyloxy)-hexahydro-pyrrolo[3,2-b]pyrrole-1-carboxylic acid methylamide] | 100 to 1000 | < 100 | < 100
CNC(=O)N1C[C@H](COc2ccc(F)c(F)c2)[C@@H]2[C@H]1CCN2C(=O)[C@@H](NC(=O)[C@H](C)NC)C(C)(C)C [Example 62, 3-(3,4-Difluoro-phenoxymethyl)-4-[3,3-dimethyl-2-(2-methylamino-propionylamino)-butyryl]-hexahydro-pyrrolo[3,2-b]pyrrole-1-carboxylic acid methylamide] | < 100 | < 100 | < 100
